# Columns and labels:
# [1] = method code SF, from Dai, J-Y.; Han, S.; Wang, L. (2000). Prediction of partition properties of substituted benzaldehydes using different structural parameters. Zhongguo Huanjing Kexue (China Environmental Science), …
# [2] = method code SF-GLC, from DOI: 10.1002/jps.2600600712, PMID: 4398902
# [3] = not given; remark: listed apart in the source
# [4] = method code SF-GLC, from DOI: 10.1021/je00020a050
# [5] = method code SF, from DOI: 10.1016/j.tca.2004.05.019
# [6] = method code SF-HPLC, from DOI: 10.1002/etc.5620110812
# [7] = method code SF-CR, from DOI: 10.1248/cpb.21.2417, PMID: 4779830; details: pH 6.0
# [8] = method code SF-AS, from DOI: 10.1021/jm00299a013, PMID: 5458368
# [9] = method code SF-HPLC, from DOI: 10.1002/jps.2600831027, PMID: 7884677; details: pH 2.0
# [10] = method code SF-AS, from DOI: 10.1248/cpb.26.2824
# [11] = not given; remark: listed apart in the source
# [12] = method code SF-RC, from DOI: 10.1111/j.2042-7158.1987.tb06949.x, PMID: 2882008; details: pH 1.0
# [13] = not given; remark: listed apart in the source
# [14] = not given; remark: listed apart in the source
# [15] = not given; remark: listed apart in the source
# [16] = not given; remark: listed apart in the source
# [17] = not given; remark: listed apart in the source
# [18] = method code SF-RC, from DOI: 10.1021/jm201482p, PMID: 22339166; details: pH 6.8
# [19] = from Rich, R. (1990). Partition coefficients of quinones and their relation to biochemical reactivity. In Lenaz, G. (Ed.), Highlights in Ubiquinone Research: Proceedings of the International Symposium, …
# [20] = method code SF-AS, from DOI: 10.1016/0378-5173(80)90117-9
# [21] = not given; remark: listed apart in the source
# [22] = method code SF-AS, from DOI: 10.1248/cpb.35.377
# [23] = method code SF-HPLC, from DOI: 10.1002/jat.2550130210, PMID: 8486911; details: pH 13.0
# [24] = not given; remark: listed apart in the source
# [25] = method code SF-AS, from Holmes, L.; Lough, E. (1976). Effect of Intramolecular Hydrogen Bonding on Partition Coefficients [Technical Note]. Defence Research Establishment Suffield.
# [26] = method code SF, from PMID: 2704; details: pH 1.0
# [27] = method code SF-HPLC, from DOI: 10.1016/s0021-9673(01)83534-2
# [28] = method code SF, from Brown, J.; Yu, N.; Cory, M.; Bicknell, R.; Taylor, D. (1978). In vivo evaluation of the radiosensitizing and cytotoxic properties of newly synthesized electron-affinic drugs. 3, 206-211.
# [29] = method code SF-MS, from DOI: 10.1016/j.fluid.2014.01.017; details: pH 7.6
# [30] = method code SF-AS, from DOI: 10.1016/0009-2797(77)90097-7, PMID: 407012; details: pH 7.0
# [31] = not given; remark: listed apart in the source
# [32] = method code SF-AS, from DOI: 10.1111/j.1440-1681.1976.tb00621.x, PMID: 10116
# [33] = method code SF-HPLC, from DOI: 10.1002/ps.2780190203; details: pH 1.0
# [34] = method code SF, from DOI: 10.1002/ps.2780340212; details: pH 7.0
# [35] = from Bazaco, J.; Coca, C. (1989). Relation between the partition coefficient (Log Pow) and capacity factor (Log k') derived from reversed-phase HPLC of a series of benzaldehyde derivatives. Ciencia e …
# [36] = not given; remark: listed apart in the source
# [37] = method code SF-HPLC, from DOI: 10.1002/jps.2600780218, PMID: 2715940; details: pH 7.4
# [38] = method code SF-AS, from DOI: 10.1248/cpb.36.1393
# [39] = method code SF-RC, from DOI: 10.1002/ps.2780300102; details: pH 1.0
compound,measurement,setting,value
O=C(O)Cn1c(=O)sc2cccc(Cl)c21,logP,,2.21
O=Cc1ccc(Cl)c(Cl)c1,logP,[1],2.53
O=C1CCCCCCCN1,logP,[2],0.67
S=C=Nc1ccc(N=C=S)cc1,logP,[3],2.8
COc1cc(Cl)c(Cl)cc1OC,logP,[4],3.11
Cc1ssc(=S)c1CCC(=O)O,logP,[5],2.04
Sc1nc2ccccc2s1,logP,[6],2.41
CN(C)S(=O)(=O)c1ccc(N)cc1,logD,[7],0.67
Cc1ncc([N+](=O)[O-])n1CCS(=O)(=O)C(C)C,logP,[8],0.13
NC(=O)Cc1ccc(C(=O)O)cc1,logD,[9],0.3
O=C(O)c1ccccc1[N+](=O)[O-],logP,[10],1.46
S=C=Nc1cccc2c(N=C=S)cccc12,logP,[3],4.43
O=C(O)CCc1ccc(I)cc1,logP,[11],2.81
O=C(O)Cc1cccc(I)c1,logD,[12],2.49
O=[N+]([O-])c1ccc(Oc2c(Cl)cc(Cl)cc2Cl)cc1,logP,[13],4.97
COCCCNc1nc(NC(C)C)nc(SC)n1,logP,[14],2.96
CN(c1ccccn1)S(=O)(=O)c1ccc(N)cc1,logD,[7],1.3
CCOCC(O)Cn1ccnc1[N+](=O)[O-] (stereo not given),logP,[15],-0.07
CON(C)C(=O)Nc1ccc(Cl)c(Cl)c1,logP,[16],3
CCc1ccc(C(=O)O)cc1,logP,[17],2.85
CC(C)(C)c1cc(C(C)(C)C)c2c(c1F)CO[P@@](=O)(OC[C@H]1O[C@@H](n3cc(I)c(=O)[nH]c3=O)C[C@@H]1O)O2,logD,[18],2.23
COc1c(O)ccc(O)c1OC,logP,[19],0.61
O=C(O)CNC(=O)c1ccccc1I,logP,[11],1.08
CSc1nc(N=[N+]=[N-])nc(NC(C)C)n1,logP,[14],3.27
O=c1[nH]c(=O)n([C@H]2CC(F)[C@@H](CO)O2)cc1I (stereo not given in full),logD,[18],-0.03
N#CCc1ccc(C(=O)O)cc1,logD,[9],1.18
O=C(O)Cc1ccc(Cl)c(Cl)c1,logP,,2.9
CC(C)c1ccc(C(=O)O)cc1,logP,[17],3.24
COc1ccc(O)cc1,logP,[20],1.57
CCn1ccc(=O)c(O)c1,logP,[21],-0.4
CCCCn1ccc(=O)c(O)c1,logP,[21],0.72
Oc1ccc2ccccc2c1,logP,[22],2.75
CCCCCCCCN,logD,[23],3.3
COc1c(Cl)cc(Cl)c(Cl)c1Cl,logP,[24],4.75
CCC(=O)c1ccccc1O,logP,[25],2.54
O=C1CCCCCCN1,logP,[2],0.24
Cc1ccc(C)c(C=O)c1,logP,[1],1.91
O=Cc1ssc(=S)c1CCC(=O)O,logP,[5],2.73
CC1=C(C)C(=O)C=CC1=O,logP,[19],1.23
COC(=O)COc1ccccc1C,logD,[26],2.08
CC(C)=NNc1ccc([N+](=O)[O-])cc1[N+](=O)[O-],logP,[27],3.05
COCC(=O)Cn1ccnc1[N+](=O)[O-],logP,[28],-0.26
CCCCC/C=C\C=O,logD,[29],2.38
COc1c(Cl)cc(Cl)cc1Cl,logP,[4],4.02
Cc1ccccc1C(=O)O,logP,[10],2.18
CN(CO)c1nc(N(C)CO)nc(N(C)CO)n1,logD,[30],0.4
CON=C(C#N)C(=O)N[C@@H](CS(C)(=O)=O)C(=O)O,logP,[31],-0.73
CCC(Cl)(CC)C(=O)NC(N)=O,logP,[32],1.4
O=C(O)COc1ccc(Oc2ccc(Cl)cc2Cl)cc1,logD,[33],4.51
CS(=O)(=O)c1cccc(NC(N)=O)c1,logD,[34],-0.1
CCCCCC/C=C/C=O,logD,[29],3.11
CCCCc1ccc(O)cc1,logP,[20],3.65
Cc1ncc([N+](=O)[O-])n1CCS(C)(=O)=O,logP,[8],-0.82
COc1cccc(C=O)c1,logP,[35],1.71
N#CCc1ccccc1,logP,[36],1.47
CC(=O)N(C)c1ccc([N+](=O)[O-])cc1,logD,[37],0.91
O=C1OC(=O)c2c(Cl)c(Cl)c(Cl)c(Cl)c21,logP,[13],3.09
CN(C)c1nc(Cl)nc(N(C)C)n1,logD,[30],2.31
O=C(O)COc1cc(Cl)cc(Cl)c1,logD,[33],2.84
CCCCCC(C)(C)N,logD,[23],2.19
Clc1ccc2c(Cl)ccnc2c1,logD,[38]; pH 7.4,3.57
CCC(=O)c1ccc(O)cc1,logP,[25],2.03
CCCCc1c(C)[nH]c(NCC)nc1=O,logD,[34],2.2
CC(=O)c1ccccc1,logP,[36],1.71
O=C(O)Cc1ccc(Cl)cc1,logD,[39],2.2
OCc1cc(Cl)cc(Cl)c1,logP,[22],2.9
CCS(=O)(=O)CCn1ccnc1[N+](=O)[O-],logP,[28],-0.58
C/C=C/OCC(O)Cn1ccnc1[N+](=O)[O-] (stereo not given),logP,[15],0.28
[O-][n+]1ccc(Nc2ccc(O)cc2)c2ccc(Cl)cc21,logD,[38]; pH 2.8,1.23
CON=C(C#N)C(=O)N[C@@H](CSC)C(=O)O,logP,[31],0.52
CC(=O)Nc1ccc(C#N)cc1,logD,[37],1.36
N#CSCSc1nc2ccccc2s1,logP,[6],3.12
COC(=O)c1cc([N+](=O)[O-])cc([N+](=O)[O-])c1,logP,[27],1.84
CS(=O)(=O)c1ccc(CC(=O)O)cc1,logD,[39],0.06
Cc1ccccc1OCC(=O)O,logD,[26],1.96
CC(=O)Nc1ccc(C(=O)O)c(O)c1,logD,[12],1.62
COc1ccc(C=O)cc1OC,logP,[35],1.22
CCC(CC)(OC)C(=O)NC(N)=O,logP,[32],0.96
CN1CC(O)N(c2nnc(C(C)(C)C)s2)C1=O (stereo not given),logP,[16],1.45
COc1c(Cl)c(Cl)cc(Cl)c1Cl,logP,[24],4.68
